Tests used:
[1] = tested on: 5-HT/5-HIAA levels in the forebrain neocortex; details: 300 mg/kg twice per day, within 5 days; Gurevich et al., 2002; cited from earlier work
[2] = tested on: histone H3 and H4 proteins in the forebrain neocortex; experiment: Western blotting of histone proteins, forebrain neocortex of SFR Balb/c mice; format: in vivo
Description: (§1) Forebrain neocortical tissue was dissected in phosphate-buffered saline supplemented with protease inhibitors and homogenized in 0.5% SDS, protease inhibitor cocktail (Complete Mini, Roche, Germany), 10 mM EDTA, and 10 mM Tris HCl (pH 8.0). Protein concentration was measured using the NanoDrop instrument (Thermo Scientific, Wilmington, Del.).
(§2) For loading controls, an anti-GAPDH antibody was used (Abcam, Cambridge, Mass.; 1:100,000). After incubation with primary antibody, membranes were incubated with a horseradish-peroxidase-conjugated secondary antibody (anti-rabbit IgG-HRP; Sigma, St. Louis, Mo.; dilution: 1:5,000) for 1 hour at room temperature. SuperSignal West Dura (Thermo Scientific, Waltham, Mass.) was used to visualize bound antigen. Optical densities (OD) of histone protein signals were determined using NIH ImageJ software. ODs were normalized to corresponding ODs obtained for GAPDH.

[3] = tested on: histone H3 and H4 proteins in the forebrain neocortex; experiment: Western blotting of histone proteins, forebrain neocortex of IMS Balb/c mice; format: in vivo
Description: as §1, §2

SFR Balb/c mice [4] = experiment: Elevated Plus Maze (EPM), SFR Balb/c mice; format: in vivo; details: for time spent in the open arms of the EPM: SFR Balb/c treated during adolescence (P35 to P60), vs non-treated controls
SFR Balb/c mice [5] = experiment: Forced Swim Test (FST), SFR (non-stressed) Balb/c mice; format: in vivo; details: for immobility in the FST: SFR Balb/c treated during adolescence (P35 to P60), vs SFR controls
Description: (§4) For chronic drug treatment, drugs were administered via the drinking water. […] Suberoylanidide hydroxamic acid (SAHA) was dissolved in DMSO and subsequently diluted about 100 fold in water containing 0.2% sucrose. Mice consumed about 200 mg/kg/day of SAHA (Butler et al., 2000) and their controls received drinking water supplemented with the same amount of DMSO and sucrose that SAHA-treated animals received. […] In these experiments, mice received a single intraperitoneal injection of SAHA (100 mg/kg) at P35, followed by SAHA treatment via the drinking water for the next 3 days.
Three days later, mice were tested in a modified version of Forced Swim Test (FST), i.e., a 6 minute exposure on day 1 followed by another 6 minute exposure on day 2.

[6] = tested on: histone H3 and H4 proteins in the forebrain neocortex; experiment: Western blotting of histone proteins, forebrain neocortex of C57BI/6 mice; format: in vivo; details: C57BI/6 mice at P60, IMS-fluoxetine, OD normalized to GAPDH, mean ± sem
Description: as §1, §2

[7] = tested on: aCH4K12 at BDNF promotors; experiment: ChIP/real-time PCR, aCH4K12 enrichment at BDNF promotors; format: in vivo, Balb/c mice; details: non-stressed Balb/c treated P35 to P59; FIG. 15B
Source text: (§3) Data in (FIG. 15A) are mean±sem of 8 animals per group. Data in (FIG. 15B) and (FIG. 15C) were obtained from ChIP/real-time PCR measures (mean±sem; n=4/group) using antibodies directed against aCH4K12 (FIG. 15B) and Pol II (FIG. 15C). […] Data in (FIG. 15D) are from RT-real-time PCR measures of BDNF mRNA levels (mean±sem, n=5/group). […] All data were compared by ANOVA and significant differences between groups were resolved post hoc using Tukey Kramer multiple comparisons as indicated. In all studies, male and female mice were used.

[8] = tested on: RNA Polymerase II (Pol II) at BDNF promotors; experiment: ChIP/real-time PCR, Pol II enrichment at BDNF promotors; format: in vivo, Balb/c mice; details: non-stressed Balb/c treated P35 to P59; FIG. 15C
Source text: as §3

SFR Balb/c mice [9] = details: adolescent treatment; Bhansali et al., 2007; cited from earlier work
HDAC mRNA = experiment: Real-time RT-PCR of HDAC mRNA, forebrain neocortex of IMS Balb/c mice
Source text: (§5) Briefly, offspring of first-time mothers were separated from their dam daily for three hours (from 1:00 to 4:00 P.M.) from postnatal age day 2 (P2) until P15. Control animals were standard facility-reared (SFR) pups of first-time mothers. Housing and husbandry conditions were identical for IMS and SFR mice. Pups were weaned at P28 and group housed by sex (five animals randomly selected from at least five different litters). Since this study involved behavioral tests of emotive phenotypes that are sensitive to differences in the estrus cycle of females, all studies disclosed below were conducted on male mice.
as §4

HDAC3 [10] = target: T1, HDAC3 (Homo sapiens, UniProt O15379); details: read-out: IC50 HDAC 3; cited from earlier work
Target sequence in this assay (O15379 whole entry, species assumed): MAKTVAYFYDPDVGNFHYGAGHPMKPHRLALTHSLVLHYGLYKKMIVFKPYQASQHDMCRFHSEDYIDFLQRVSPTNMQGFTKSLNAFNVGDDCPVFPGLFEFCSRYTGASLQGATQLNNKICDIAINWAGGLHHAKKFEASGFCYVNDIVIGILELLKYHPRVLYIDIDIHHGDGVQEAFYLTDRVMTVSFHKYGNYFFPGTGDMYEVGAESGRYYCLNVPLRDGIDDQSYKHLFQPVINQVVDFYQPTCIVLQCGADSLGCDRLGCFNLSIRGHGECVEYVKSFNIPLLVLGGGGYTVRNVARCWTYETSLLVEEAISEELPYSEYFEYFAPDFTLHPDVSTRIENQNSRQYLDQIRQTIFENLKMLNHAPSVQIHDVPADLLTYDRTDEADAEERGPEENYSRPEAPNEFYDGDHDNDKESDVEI
Target sequence in this assay (Q9Y618 395-489 partner limits assumed, species assumed): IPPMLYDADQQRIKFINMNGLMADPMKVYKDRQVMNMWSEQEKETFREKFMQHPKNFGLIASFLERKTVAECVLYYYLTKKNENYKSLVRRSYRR

HDAC1 = HDAC1 (Homo sapiens, UniProt Q13547); details: at concentration below 10^−4M; Ito et al., 2002; cited from earlier work
HDAC1, sequence (Q13547 whole entry, species assumed): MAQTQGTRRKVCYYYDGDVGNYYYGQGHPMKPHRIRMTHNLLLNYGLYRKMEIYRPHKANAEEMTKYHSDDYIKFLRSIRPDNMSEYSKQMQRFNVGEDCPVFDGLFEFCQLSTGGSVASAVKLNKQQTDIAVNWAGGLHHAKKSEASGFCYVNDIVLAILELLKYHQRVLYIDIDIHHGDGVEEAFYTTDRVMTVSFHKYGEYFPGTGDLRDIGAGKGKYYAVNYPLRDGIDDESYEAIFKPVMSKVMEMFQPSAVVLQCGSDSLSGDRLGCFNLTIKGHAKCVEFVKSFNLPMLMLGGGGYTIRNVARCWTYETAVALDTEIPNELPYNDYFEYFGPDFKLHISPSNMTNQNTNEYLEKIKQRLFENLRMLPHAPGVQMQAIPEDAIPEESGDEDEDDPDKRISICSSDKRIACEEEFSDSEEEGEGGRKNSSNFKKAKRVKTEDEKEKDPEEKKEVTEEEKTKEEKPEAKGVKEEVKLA

HDAC3 [11] = target: T1, HDAC3; details: at concentration below 10^−4M; Ito et al., 2002; cited from earlier work
Target sequence in this assay (O15379 whole entry, species assumed): as the sequence (O15379 whole entry, species assumed) above

adenosine receptors = details: at concentration below 10^−4M; Ito et al., 2002; cited from earlier work
phosphodiesterases = details: at concentration below 10^−4M; Ito et al., 2002; cited from earlier work
IMS Balb/c mice [12] = experiment: Forced Swim Test (FST), IMS Balb/c mice
Source text: as §5, §4
Their times spent in open arms and the number of arm crossings was recorded. […]

IMS Balb/c mice [13] = experiment: Elevated Plus Maze (EPM), IMS Balb/c mice
Source text: as §5, §4
Their times spent in open arms and the number of arm crossings was recorded. Three days later, mice were tested in a modified version of Forced Swim Test (FST), i.e., a 6 minute exposure on day 1 followed by another 6 minute exposure on day 2.

[14] = Plasma concentration of theophylline under drinking water treatment; details: over 24 hours of theophylline-supplemented (10^−4M) drinking water consumption
Description: as §4

[15] = tested on: extracellular 5-HT levels; details: McEwen et al., 2010, Mennini et al., 1987; cited from earlier work
[16] = SFR Balb/c, adolescent treatment
[17] = IMS Balb/c treated between P21 and P35
[18] = IMS Balb/c, adolescent fluoxetine vs non-treated IMS
[19] = IMS Balb/c, adolescent treatment, compared to non-treated IMS Balb/c mice
[20] = IMS Balb/c, fluoxetine during adolescence, OD normalized to GAPDH, mean ± sem
[21] = IMS Balb/c, treatment P35 to P60, vs non-treated IMS
[22] = SFR Balb/c, fluoxetine alone or with SAHA, OD normalized to GAPDH, mean ± sem
[23] = IMS-fluoxetine Balb/c at P60, mean±sem

In the case of `N[C@@H](Cc1ccc(Cl)cc1)C(=O)O` (racemic) [pCPA, para-chlorophenylalanine], the “reduction of 5-HT/5-HIAA levels in the forebrain neocortex” value [1] is given as “about 80%”.

With `Nc1ccccc1NC(=O)c1ccc(CNC(=O)OCc2cccnc2)cc1` [MS-275] the “effect on acetylated H4K5 expression” value [2, 16] was “increased”, the “effect on acetylated H4K8 expression” value [2, 16] was “increased” and the “effect on acetylated H4K12 expression” value [2, 16] was “increased”.

With `O=C(CCCCCCC(=O)Nc1ccccc1)NO` [SAHA, suberoylanilide hydroxamic acid] the “effect on development of the adult epigenetic phenotype” value [3, 17] was “did not prevent”, the “effect on the decreased acetylation of histone H4 proteins” value [3, 17] was “prevented” and the “percentage of open arm entries in the EPM” value (SFR Balb/c mice [4]; SFR Balb/c treated during adolescence) was “lowest percentage”. The “time spent in the open arms of the EPM” value (SFR Balb/c mice [4]) was “significantly less time” and the “immobility in the FST” value (SFR Balb/c mice [5]) was “significantly increased”.

For `CNCCC(Oc1ccc(C(F)(F)F)cc1)c1ccccc1` (centres unmarked) [fluoxetine], the “increase in acetylated H3K9 protein” value [3, 18] was 55%, the “increase in acetylated H4K12 protein” value [3, 18] was 230% and the “increase in total histone H3 protein expression” value [3, 18] was 60%. The “increase in total histone H4 protein expression” value [3, 18] was 13%, the H3K4me3 [3, 19] was “Increased” and the acH3K9 [3, 19] was “Increased”. The acH4K5 [3, 19] was “Increased”, the acH4K12 [3, 19] was “Increased” and the acK4K8 [3, 19] was “Increased”. It also gave an H3K4me3 expression [3, 20] of 0.94 ± 0.07, an H3K9me2 expression [3, 20] of 0.93 ± 0.03 and an H3 expression [3, 20] of 1.31 ± 0.03. The acH3K9 expression [3, 20] was 1.21 ± 0.02, the acH4K5 expression [3, 20] was 0.94 ± 0.02 and the acH4K8 expression [3, 20] was 1.51 ± 0.06. For the same molecule, the acH4K12 expression [3, 20] was 1.16 ± 0.04, the acH4K16 expression [3, 20] was 1.04 ± 0.04 and the H4 expression ([3]; IMS Balb/c, fluoxetine during adolescence, OD on Western blots normalized to GAPDH, mean ± sem, n = 5) was 0.97 ± 0.05. For the same molecule, the “effect on acetylated H4K12 protein expression” value [3, 21] was “significantly increased”, the “effect on acetylated histone H3K9 expression” value [3, 21] was “significantly increased” and the “effect on acetylated histone H4K8 expression” value [3, 21] was “significantly increased”. For the same molecule, the “effect on dimethylated histone H3 protein expression” value [3, 21] was “did not change”, the “effect on total H3 protein expression” value [3, 21] was “increased” and the “effect on total H4 protein expression” value [3, 21] was “increased”. For the same molecule, the “effect on trimethylated histone H3 protein expression” value [3, 21] was “increased”, the H3K4me3 expression [2, 22] was 1.12 ± 0.02 and the H3K9me2 expression [2, 22] was 1.08 ± 0.04. It also gave an H3 expression [2, 22] of 0.96 ± 0.01, an acH3K9 expression [2, 22] of 0.86 ± 0.03 and an acH4K5 expression [2, 22] of 0.45 ± 0.06. It also gave an acH4K8 expression [2, 22] of 0.86 ± 0.06, an acH4K12 expression [2, 22] of 0.80 ± 0.03 and an acH4K16 expression [2, 22] of 0.70 ± 0.06. The H4 expression ([2]; SFR Balb/c, fluoxetine alone or with SAHA, OD on Western blots normalized to GAPDH, mean ± sem, n = 5) was 1.10 ± 0.04, the “effect on histone H3/H4 expression” value ([2]; SFR mice, adolescent fluoxetine 16 mg/kg/day vs vehicle, FIG. 7) was “does not alter” and the H3K4me3 expression [6] was 0.94 ± 0.02. For the same molecule, the H3K9me2 expression [6] was 0.89 ± 0.03, the H3 expression [6] was 0.98 ± 0.02 and the acH3K9 expression [6] was 1.00 ± 0.03. For the same molecule, the H4 expression ([6]; n = 5) was 1.00 ± 0.03, the “time spent in the open arms of the EPM” value (SFR Balb/c mice [4]) was “did not differ” and the “immobility in the FST” value (SFR Balb/c mice [5]) was “did not differ”. For the same molecule, the “immobility in the forced swim test (FST), antidepressant-like effects” value (SFR Balb/c mice [5]; non-stressed Balb/c treated P35 to P59, vs vehicle and fluoxetine-only, FIG. 15A) was “not achieved”, the “enrichment of aCH4K12 at BDNF promotor P1” value [7] was “higher enrichment” and the “enrichment of aCH4K12 at BDNF promotor P3” value [7] was “higher enrichment”. The “increase of density of Pol II associated with the P3 promotor of the BDNF gene” value [8] was “not in fluoxetine-only treated mice”, the “FST behavior of SFR controls” value (SFR Balb/c mice [9]) was “had no effect” and the “effect on HDAC mRNA expression levels” value (HDAC mRNA; IMS Balb/c, treatment P35 to P60, nine HDAC mRNAs) was “did not alter”. The “HDAC1 mRNA expression, real-time PCR ½^ΔCt” value (HDAC mRNA; [23]) was 0.011±0.0006, the “HDAC2 mRNA expression, real-time PCR ½^ΔCt” value (HDAC mRNA; [23]) was 0.0016±0.0001 and the “HDAC3 mRNA expression, real-time PCR ½^ΔCt” value (HDAC mRNA; [23]) was 0.055±0.004. For the same molecule, the “HDAC4 mRNA expression, real-time PCR ½^ΔCt” value (HDAC mRNA; [23]) was 0.011±0.002, the “HDAC5 mRNA expression, real-time PCR ½^ΔCt” value (HDAC mRNA; [23]) was 0.044±0.006 and the “HDAC7 mRNA expression, real-time PCR ½^ΔCt” value (HDAC mRNA; [23]) was 0.011±0.001. For the same molecule, the “HDAC8 mRNA expression, real-time PCR ½^ΔCt” value (HDAC mRNA; [23]) was 0.0035±0.0004, the “HDAC9 mRNA expression, real-time PCR ½^ΔCt” value (HDAC mRNA; [23]) was 0.001±0.0002 and the “HDAC10 mRNA expression, real-time PCR ½^ΔCt” value (HDAC mRNA; [23]) was 0.0074±0.0006.

In the case of `CCCC(=O)[O-].[Na+]` [sodium butyrate], the IC50 (HDAC3 [10]) is given as 700 µM.

For `Cn1c(=O)c2[nH]cnc2n(C)c1=O` [theophylline], the “time spent in the open arms of the EPM” value (SFR Balb/c mice [4]) is listed as “did not differ”, the “immobility in the FST” value (SFR Balb/c mice [5]) is listed as “did not differ” and the “activation of HDAC1” value (HDAC1) is listed as “activates”. The “activation of HDAC3” value (HDAC3 [11]) was “activates”, the “antagonist effect on adenosine receptors” value (adenosine receptors) was “no antagonist effect” and the inhibition of phosphodiesterases (phosphodiesterases) was “exerts no”. For the same molecule, the “total immobility time in the FST” value (IMS Balb/c mice [12]; IMS Balb/c treated P35 to P60, greater immobility of IMS mice) was “significantly potentiated”, the “number of passive episodes in the FST” value (IMS Balb/c mice [12]; SFR controls, IMS and treated IMS mice) was “no significant differences” and the “total time spent in open arms of the EPM” value (IMS Balb/c mice [13]; IMS Balb/c treated P35 to P60, vs non-treated IMS mice) was “significantly less time”. For the same molecule, the “total number of arm crossings in the EPM” value (IMS Balb/c mice [13]; SFR controls, IMS and treated IMS Balb/c) was “no significant difference”, the “percentages of crossings into open arms” value (IMS Balb/c mice [13]; treated IMS Balb/c compared with SFR controls) was “did not reach statistical significance” and the “plasma concentrations of theophylline” value [14] was “below 10^−4 M”.

In the case of `CN1c2ccccc2C(NCCCCCCC(=O)O)c2ccc(Cl)cc2S1(=O)=O` (centres unmarked) [tianeptine], the “extracellular 5-HT levels” value [15] is listed as “without marked changes”.
